# Assay results published in patent US20250059182A1, “SOS1 INHIBITORS” (Mirati Therapeutics, Inc., priority 2021, published 2025).
# What was measured:
# [1] = target: T1, recombinant human SOS1 polypeptide (amino acids 560-1049) (Homo sapiens, UniProt Q07889); assay: HTRF displacement assay: inhibition of labeled tracer binding to SOS1; conditions: Table A, Morrison equation for competitive binding
# T1 construct: corresponding to amino acids 560-1049, expressed in E. Coli; made in house; host or cells: E. coli
# T1 sequence (Q07889 560-1049): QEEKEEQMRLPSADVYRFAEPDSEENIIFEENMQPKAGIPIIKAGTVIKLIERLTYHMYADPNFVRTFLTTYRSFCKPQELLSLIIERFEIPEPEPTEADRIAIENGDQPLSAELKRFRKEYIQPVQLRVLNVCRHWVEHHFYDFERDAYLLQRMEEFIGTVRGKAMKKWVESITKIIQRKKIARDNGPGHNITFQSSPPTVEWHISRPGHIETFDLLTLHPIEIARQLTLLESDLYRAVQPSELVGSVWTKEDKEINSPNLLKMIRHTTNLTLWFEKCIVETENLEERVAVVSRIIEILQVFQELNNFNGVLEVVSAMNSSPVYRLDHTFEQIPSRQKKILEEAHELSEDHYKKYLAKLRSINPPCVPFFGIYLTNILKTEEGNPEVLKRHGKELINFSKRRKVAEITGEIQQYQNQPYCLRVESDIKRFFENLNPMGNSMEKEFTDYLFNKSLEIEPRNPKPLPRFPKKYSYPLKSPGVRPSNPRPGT
# pERK in MKN1 cells = assay: pERK inhibition, In-Cell Western (LI-COR Odyssey), MKN1 cells; assay type: cell-based; conditions: Homo sapiens, MKN-1, Table B; MKN1 or H358 cells (table does not say which); 0.5-1 hour incubation; read-out: IC50 (nM), pERK inhibition
# Method in brief: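 IC50 was fitted from % pERK inhibition, calculated as the GAPDH-normalised pERK signal of each well divided by the vehicle mean. Signal was imaged at 700 and 800 nm after fixation, methanol permeabilisation and dual antibody staining. Before fixation, MKN1 cells had received compound for about 0.5–1 h at 37 °C, top concentration 10 µM, nine 3-fold dilutions.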
Structure (SMILES),Ki [1] [nM],IC50 (pERK in MKN1 cells) [nM]
"Cc1nnc(N[C@H](C)c2cccc(C(F)(F)F)c2F)c2cc(N(C)[C@@H]3CCCN(C)C3)ncc12 [Example 1-90, N^1-((R)-1-(2-fluoro-3-(trifluoromethyl)phenyl)ethyl)-N^7,4-dimethyl-N^7-((R)-1-methylpiperidin-3-yl)pyrido[3,4-d]pyridazine-1,7-diamine]",0.453,102
"COCCN(C)c1cc2c(N[C@H](C)c3cccc(C#N)c3C)nnc(C)c2cn1 [Example 1-91, (R)-3-(1-((7-((2-methoxyethyl)(methyl)amino)-4-methylpyrido[3,4-d]pyridazin-1-yl)amino)ethyl)-2-methylbenzonitrile]",6.07,225
"Cc1nnc(N[C@H](C)c2cc(N)cc(C(F)(F)F)c2F)c2cc(N3CC(C)(O)C3)ncc12 [Example 1-93, (R)-1-(1-((1-(5-amino-2-fluoro-3-(trifluoromethyl)phenyl)ethyl)amino)-4-methylpyrido[3,4-d]pyridazin-7-yl)-3-methylazetidin-3-ol]",0.361,50.5
"Cc1nnc(N[C@H](C)c2cc(N)cc(C(F)(F)F)c2F)c2cc(N3CC4CC(C3)O4)ncc12 [Example 1-94, N-((R)-1-(5-amino-2-fluoro-3-(trifluoromethyl)phenyl)ethyl)-7-(6-oxa-3-azabicyclo[3.1.1]heptan-3-yl)-4-methylpyrido[3,4-d]pyridazin-1-amine]",0.264,15.4
"Cc1nnc(N[C@H](C)c2cc(N)cc(C(F)(F)F)c2F)c2cc(N3CC4CC(C3)O4)ccc12 [Example 1-95, N-((R)-1-(5-amino-2-fluoro-3-(trifluoromethyl)phenyl)ethyl)-7-(6-oxa-3-azabicyclo[3.1.1]heptan-3-yl)-4-methylphthalazin-1-amine]",0.31,19.8
"Cc1nnc(N[C@H](C)c2ccc(C#N)cc2F)c2cc(N3C[C@H]4C[C@@H]3CO4)ncc12 [Example 1-96, 4-((R)-1-((7-((1R,4R)-2-oxa-5-azabicyclo[2.2.1]heptan-5-yl)-4-methylpyrido[3,4-d]pyridazin-1-yl)amino)ethyl)-3-fluorobenzonitrile]",19.1,255
"Cc1nnc(N[C@H](C)c2ccc(C#N)cc2F)c2cc(N3CCN4CCOC[C@@H]4C3)ncc12 [Example 1-97, 3-fluoro-4-((R)-1-((7-((S)-hexahydropyrazino[2,1-c][1,4]oxazin-8(1H)-yl)-4-methylpyrido[3,4-d]pyridazin-1-yl)amino)ethyl)benzonitrile]",17.7,358
"Cc1nnc(N[C@H](C)c2cccc3c2OCC3(F)F)c2cc(N3CC4(CN(C)C4)C3)ncc12 [Example 1-99, (R)-N-(1-(3,3-difluoro-2,3-dihydrobenzofuran-7-yl)ethyl)-4-methyl-7-(6-methyl-2,6-diazaspiro[3.3]heptan-2-yl)pyrido[3,4-d]pyridazin-1-amine]",0.357,19.1
"Cc1nnc(N[C@H](C)c2cccc3c2OCC3(F)F)c2cc(N3CCN(C)CC3)ncc12 [Example 1-100, (R)-N-(1-(3,3-difluoro-2,3-dihydrobenzofuran-7-yl)ethyl)-4-methyl-7-(4-methylpiperazin-1-yl)pyrido[3,4-d]pyridazin-1-amine]",0.423,25.1
"CCN1CCN(c2cc3c(N[C@H](C)c4cccc5c4OCC5(F)F)nnc(C)c3cn2)CC1 [Example 1-101, (R)-N-(1-(3,3-difluoro-2,3-dihydrobenzofuran-7-yl)ethyl)-7-(4-ethylpiperazin-1-yl)-4-methylpyrido[3,4-d]pyridazin-1-amine]",0.326,26.2
"Cc1c([C@@H](C)Nc2nnc(C)c3cnc(N4CCN(C)CC4)cc23)cc(N)nc1C(F)(F)F [Example 1-102, (R)-N-(1-(6-amino-3-methyl-2-(trifluoromethyl)pyridin-4-yl)ethyl)-4-methyl-7-(4-methylpiperazin-1-yl)pyrido[3,4-d]pyridazin-1-amine]",2.18,37
"CCN(c1cc2c(N[C@H](C)c3cccc(C#N)c3C)nnc(C)c2cn1)[C@@H]1CCN(C)C1 [Example 1-103, 3-((R)-1-((7-(ethyl((R)-1-methylpyrrolidin-3-yl)amino)-4-methylpyrido[3,4-d]pyridazin-1-yl)amino)ethyl)-2-methylbenzonitrile]",1.1,48.4
"Cc1c([C@@H](C)Nc2nnc(C)c3cnc(N4CCOCC4)cc23)cc(N)nc1C(F)(F)F [Example 1-105, (R)-N-(1-(6-amino-3-methyl-2-(trifluoromethyl)pyridin-4-yl)ethyl)-4-methyl-7-morpholinopyrido[3,4-d]pyridazin-1-amine]",4.39,31.1
"Cc1c([C@@H](C)Nc2nnc(C)c3cnc(N4C[C@H]5C[C@@H]4CO5)cc23)cc(N)nc1C(F)(F)F [Example 1-106, N-((R)-1-(6-amino-3-methyl-2-(trifluoromethyl)pyridin-4-yl)ethyl)-7-((1R,4R)-2-oxa-5-azabicyclo[2.2.1]heptan-5-yl)-4-methylpyrido[3,4-d]pyridazin-1-amine]",7.3,128
"Cc1c([C@@H](C)Nc2nnc(C)c3cnc(N4CC5(COC5)C4)cc23)cc(N)nc1C(F)(F)F [Example 1-107, (R)-N-(1-(6-amino-3-methyl-2-(trifluoromethyl)pyridin-4-yl)ethyl)-4-methyl-7-(2-oxa-6-azaspiro[3.3]heptan-6-yl)pyrido[3,4-d]pyridazin-1-amine]",22.5,239
"Cc1nnc(N[C@H](C)c2cccc3c2OCC3(F)F)c2cc(N3CCOCC3)ncc12 [Example 1-108, (R)-N-(1-(3,3-difluoro-2,3-dihydrobenzofuran-7-yl)ethyl)-4-methyl-7-morpholinopyrido[3,4-d]pyridazin-1-amine]",2.31,35.7
"Cc1nnc(N[C@H](C)c2cccc(C(C)(F)F)c2F)c2cc(N3CCN(C)CC3)ncc12 [Example 1-109, (R)-N-(1-(3-(1,1-difluoroethyl)-2-fluorophenyl)ethyl)-4-methyl-7-(4-methylpiperazin-1-yl)pyrido[3,4-d]pyridazin-1-amine]",0.647,41.3
"Cc1c(C#N)cccc1[C@@H](C)Nc1nnc(C)c2cnc(N3CCS(=O)(=O)CC3)cc12 [Example 1-110, (R)-3-(1-((7-(1,1-dioxidothiomorpholino)-4-methylpyrido[3,4-d]pyridazin-1-yl)amino)ethyl)-2-methylbenzonitrile]",3.36,240
"Cc1c([C@@H](C)Nc2nnc(C)c3ccc(N4CCOCC4)cc23)cc(N)nc1C(F)(F)F [Example 1-111, (R)-N-(1-(6-amino-3-methyl-2-(trifluoromethyl)pyridin-4-yl)ethyl)-4-methyl-7-morpholinophthalazin-1-amine]",2.91,57.9
"Cc1c(C#N)cccc1[C@@H](C)Nc1nnc(C)c2cnc(N3CCN(C(=O)[C@H]4CCCN4C)CC3)cc12 [Example 2-1, 2-methyl-3-((R)-1-((4-methyl-7-(4-(methyl-D-prolyl)piperazin-1-yl)pyrido[3,4-d]pyridazin-1-yl)amino)ethyl)benzonitrile]",0.458,551
"Cc1c(C#N)cccc1[C@@H](C)Nc1nnc(C)c2cnc(N3CCN(C(=O)[C@@H]4CCCN4C)CC3)cc12 [Example 2-2, 2-methyl-3-((R)-1-((4-methyl-7-(4-(methyl-L-prolyl)piperazin-1-yl)pyrido[3,4-d]pyridazin-1-yl)amino)ethyl)benzonitrile]",0.845,456
"Cc1c(C#N)cccc1[C@@H](C)Nc1nnc(C)c2cnc(N3CCN(C(=O)[C@H]4CCCN4)CC3)cc12 [Example 2-3, 3-((R)-1-((7-(4-(D-prolyl)piperazin-1-yl)-4-methylpyrido[3,4-d]pyridazin-1-yl)amino)ethyl)-2-methylbenzonitrile]",0.32,656
"Cc1c(C#N)cccc1[C@@H](C)Nc1nnc(C)c2cnc(N3CCN(C(=O)[C@@H]4CCCN4)CC3)cc12 [Example 2-4, 3-((R)-1-((7-(4-(L-prolyl)piperazin-1-yl)-4-methylpyrido[3,4-d]pyridazin-1-yl)amino)ethyl)-2-methylbenzonitrile]",0.816,933
"Cc1c(C#N)cccc1[C@@H](C)Nc1nnc(C)c2cnc(N3CCN(C(=O)[C@@H]4CCN(C)C4)CC3)cc12 [Example 2-5, 2-methyl-3-((R)-1-((4-methyl-7-(4-((R)-1-methylpyrrolidine-3-carbonyl)piperazin-1-yl)pyrido[3,4-d]pyridazin-1-yl)amino)ethyl)benzonitrile]",0.743,1050
"Cc1c(C#N)cccc1[C@@H](C)Nc1nnc(C)c2cnc(N3CCN(C(=O)[C@H]4CCN(C)C4)CC3)cc12 [Example 2-6, 2-methyl-3-((R)-1-((4-methyl-7-(4-((S)-1-methylpyrrolidine-3-carbonyl)piperazin-1-yl)pyrido[3,4-d]pyridazin-1-yl)amino)ethyl)benzonitrile]",0.481,869
